The record followed here is article PMC10113987, “A tool for nuclear imaging of the SARS-CoV-2 entry receptor: molecular model and preclinical development of ACE2-selective radiopeptides” (EJNMMI Research, 2023).

Like-named read-outs stand apart in the source and are kept apart here. Positions of bridges follow the written chain, without caps; N, C: chain ends. Residues, ends and D or L forms follow the SMILES beside them. *: point of attachment. DOTA = O=C(O)CN1CCN(CC(=O)O)CCN(CC(=O)*)CCN(CC(=O)O)CC1; Ahx = NCCCCCC(=O)O Where only a bound is given, the exact number is not on record here.

The nature of data set [1]: Biodistribution in HEK-ACE2/HEK-ACE xenografted mice. The class given is in vivo, mouse. The following applies: female, CD1/nude, mouse, iv, 0.5 nmol, total radioactivity, 3 h after i.v. injection, decay-corrected, n = 3. On the procedure:
(§1) All applicable international, national, and/or institutional guidelines for the care and use of animals were followed. In particular, all animal experiments were carried out according to the guidelines of the Swiss Regulations for Animal Welfare. Preclinical studies have been ethically approved by the Cantonal Committee of Animal Experimentation and permitted by the responsible cantonal authorities (License N° 75743). Five-week-old female CD1/nude mice and female immunocompetent FVB mice were obtained from Charles River Laboratories (Sulzfeld, Germany) and fed with standard rodent chow ad libitum. CD1/nude were subcutaneously inoculated with HEK-ACE2 cells (6–8 × 10^6 cells in 100 µL PBS) on the right shoulder and approximately one week later with HEK-ACE (4 × 10^6 cells in 100 µL PBS) on the left shoulder. Imaging and biodistribution studies were performed 2–4 weeks later when the xenografts reached a size of 100–300 mm^3.
(§2) Biodistribution studies in xenograft-bearing mice were performed 2–4 weeks after cell inoculation. Mice were intravenously injected with [^67Ga]Ga-DOTA-DX600, [^67Ga]Ga-NODAGA-DX600, [^67Ga]Ga-HBED-CC-DX600 or [^67Ga]Ga-DOTA-BPP9a (3 MBq, 0.5 nmol, 100 µL) diluted in NaCl 0.9% containing 0.05% BSA. The mice were sacrificed 3 h after administration of the radiopeptides. Selected tissues and organs were collected, weighed and counted using a γ-counter. The results were listed as a percentage of the injected activity per gram of tissue mass (% IA/g), using counts of a defined volume of the original injection solution measured simultaneously, resulting in decay-corrected values. Statistical analysis was performed by applying a one‐way ANOVA test with a Tukey’s multiple comparisons post‐test (GraphPad Prism software, version 8.3.1).

Data set [2] deals with HEK-ACE2/HEK-ACE-xenografted mice. The description is as above. The format is in vivo, mouse. On the procedure:
as §1, §2

Data set [3] shares this test system. Nature of the data set: SPECT/CT imaging and quantification of retained activity in HEK-ACE2/HEK-ACE xenografted mice. The class given is in vivo, mouse. The conditions noted are these: for Activity retained in the kidneys relative to the 1 h p.i.-timepoint: SPECT/CT quantification, non-decay-corrected. On the procedure:
as §1
SPECT/CT imaging was performed using a four-head, multiplexing, multipinhole small-animal SPECT camera (NanoSPECT/CT™, Mediso Medical Imaging Systems, Budapest, Hungary). Each head was outfitted with a tungsten-based aperture of nine 1.4 mm-diameter pinholes and a thickness of 10 mm. CT scans of 7.5 min duration were followed by SPECT scans of ~ 50 min performed 1 h, 3 h and 24 h after injection of the respective radiopeptide (10 MBq, 0.5 nmol, 100 μL), diluted in NaCl 0.9% containing 0.05% BSA. During the scan, mice were anesthetized with a mixture of isoflurane and oxygen. The images were acquired using Nucline software (version 1.02, Mediso Ltd., Budapest, Hungary). The real-time CT reconstruction used a cone-beam-filtered backprojection. The reconstruction of SPECT data was performed with the HiSPECT software (version 1.4.3049, Scivis GmbH, Göttingen, Germany) using γ-energies of 93.20 keV (± 10%), 184.60 keV (± 10%) and 300.00 keV (± 10%) for gallium-67. All images were prepared using the VivoQuant post-processing software (version 3.0, inviCRO Imaging Services and Software, Boston, US). A Gauss post-reconstruction filter (full width at half maximum, 1 mm) was applied, and the scale of activity for gallium-67 was set as indicated on the SPECT/CT images. In order to estimate the wash-out of the DX600-based radiopeptides from the HEK-ACE2 xenografts and kidneys over time, the absolute amount of activity was determined in these tissues using the VivoQuant quantification tool. The accumulated activity (non-decay-corrected value in MBq) in the xenografts and kidneys, respectively, obtained at the 1 h p.i. timepoint was set as 100%. The percentage of activity retained in these tissues was determined at 3 h and 24 h p.i. based on the absolute activity determined at these timepoints.

The nature of data set [4]: In vitro stability in human blood plasma (TLC). The format is in vitro ADME. The conditions noted are these: 37 °C, 24 h. How it is done: The ^67Ga-labeled DX600-radiopeptides (20 MBq/nmol) were incubated in human and mouse plasma (10 MBq/200 µL), respectively, at 37 °C. Aliquots were taken at variable time points up to 24 h for analysis using reversed phase thin layer chromatography (TLC) with citrate buffer (0.1 M, pH 5.5) as a mobile phase. Images of the TLC plates were obtained using a storage phosphor system (Cyclone Plus, PerkinElmer) and quantified using the OptiQuant software (version 5.0, Bright Instrument Co Ltd., PerkinElmer™) (Supplementary Information).
The radiopeptides were prepared and TLC experiments were performed immediately after radiolabeling by applying the diluted radiopeptides in saline (1 µL; ~0.05 MBq) and [^67Ga]GaCl3 solution (1 µL; ~0.05 MBq) on the TLC plates. The radiopeptides were incubated in mouse or human plasma (10 MBq/200 µL) at 37° C. TLC was performed with an aliquot of the plasma samples at the given timepoints (30 min, 1 h, 3 h and 24 h). The TLC plates were exposed to a phosphor screen followed by development using a storage phosphor system (Cyclone Plus, PerkinElmer). The quantification of the signals was carried out using the OptiQuant software (version 5.0, Bright Instrument Co Ltd., PerkinElmer^TM). The obtained chromatograms were analyzed by determination of the peak area of the radiolabeled peptide, the released gallium-67 as well as degradation products of unknown structure. The quantity of the intact product was expressed as percentage of the sum of integrated peak areas of the entire chromatogram.

Where [5] appears, read: HEK-ACE xenograft, read-out: Biodistribution: ACE xenograft (HEK-ACE).
[6] abbreviates: blood, read-out: Biodistribution: blood.
Where [7] appears, read: bone, read-out: Biodistribution: bone.
Where [8] appears, read: heart, read-out: Biodistribution: heart.
Where [9] appears, read: intestines, read-out: Biodistribution: intestines.
The mark [10] stands for this setting: kidneys, read-out: Biodistribution: kidneys (renal retention).
[11] abbreviates: liver, read-out: Biodistribution: liver.
Where [12] appears, read: lung, read-out: Biodistribution: lung.
Setting [13] is: muscle, read-out: Biodistribution: muscle.
[14] abbreviates: salivary glands, read-out: Biodistribution: salivary glands.
The mark [15] stands for this setting: spleen, read-out: Biodistribution: spleen.
Where [16] appears, read: stomach, read-out: Biodistribution: stomach.
Setting [17] is: 3 h after i.v. injection, decay-corrected, n = 3.

Turning to `CC[C@H](C)[C@H](NC(=O)[C@H](CCC(N)=O)NC(=O)[C@@H]1CCCN1C(=O)[C@H](CCCNC(=N)N)NC(=O)[C@@H]1CCCN1C(=O)[C@H](Cc1c[nH]c2ccccc12)NC(=O)[C@H](CCC(=O)O)NC(=O)CCCCCNC(=O)CCCCCNC(=O)CN1CCN(CC(=O)O)CCN(CC(=O)O)CCN(CC(=O)O)CC1)C(=O)N1CCC[C@H]1C(=O)N1CCC[C@H]1C(=O)O` [[^67Ga]Ga-DOTA-BPP9a, metal not drawn] ({DOTA-Ahx-Ahx}-EWPRPQIPP-OH), the tissue uptake at 3 h in data set [1] (setting [5]) is 3.17 ± 0.29 %ID/g; in data set [1] (setting [6]), 0.05 ± 0.01 %ID/g; in data set [1] (setting [7]) it was 0.04 ± 0.01 %ID/g; in data set [1] (setting [8]), 0.03 %ID/g; in data set [1] (setting [9]) it was 0.06 ± 0.02 %ID/g; in data set [1] (setting [10]) it was 3.22 ± 0.8 %ID/g. Also, the tissue uptake at 3 h amounted to 0.09 ± 0.01 %ID/g in data set [1] (setting [11]); 0.13 ± 0.03 %ID/g in data set [1] (setting [12]); 0.02 ± 0.01 %ID/g in data set [1] (setting [13]); 0.04 ± 0.01 %ID/g in data set [1] (setting [14]); 0.08 ± 0.04 %ID/g in data set [1] (setting [15]); 0.06 ± 0.05 %ID/g in data set [1] (setting [16]). Also, the “Biodistribution: ACE2 xenograft (HEK-ACE2)” value in data set [2] (setting [17]) is given as under 0.5 % IA/g; in data set [2] (3 h after i.v. injection, decay-corrected, n = 3, listed as [^67Ga]Ga-DOTA- BPP9a), 0.19 ± 0.19 % IA/g. In addition, the “Uptake in HEK-ACE2 xenografts on SPECT/CT images” value in data set [3] (1 h and 3 h after injection) was “no uptake”. In addition, the “Uptake in HEK-ACE xenografts on SPECT/CT images” value in data set [3] (1 h and 3 h after injection) is reported as “accumulation”.
For the compound `CC(=O)N[C@@H](CCCCNC(=O)CN1CCN(CC(=O)O)CCN(CC(=O)O)CCN(CC(=O)O)CC1)C(=O)NCC(=O)N[C@@H](CC(=O)O)C(=O)N[C@@H](Cc1ccc(O)cc1)C(=O)N[C@@H](CO)C(=O)N[C@@H](Cc1c[nH]cn1)C(=O)N[C@H]1CSSC[C@@H](C(=O)N[C@H](C(=O)N[C@@H](Cc2ccc(O)cc2)C(=O)N2CCC[C@H]2C(=O)N[C@@H](CC(=O)O)C(=O)N2CCC[C@H]2C(=O)N[C@@H](CCC(=O)O)C(=O)NCC(=O)NCC(=O)NCC(N)=O)[C@@H](C)O)NC(=O)[C@H](CCCCN)NC(=O)[C@H](Cc2c[nH]c3ccccc23)NC(=O)[C@H](Cc2c[nH]c3ccccc23)NC(=O)[C@@H]2CCCN2C(=O)[C@H](Cc2ccc(O)cc2)NC(=O)[C@H](Cc2ccc(O)cc2)NC(=O)[C@H](CCCNC(=N)N)NC(=O)[C@H](CC(C)C)NC(=O)[C@@H]2CCCN2C(=O)[C@H](CO)NC1=O` [[^67Ga]Ga-DOTA-DX600, metal not drawn] (Ac-K(DOTA)GDYSHCSPLRYYPWWKCTYPDPEGGG-NH2; disulfide 7-18), the tissue uptake at 3 h is 10.7 ± 0.4 %ID/g in data set [1] (HEK-ACE2 xenograft, read-out: Biodistribution: ACE2 xenograft (HEK-ACE2)); under 0.5 %ID/g in data set [1] (setting [5]); 0.06 ± 0.01 %ID/g in data set [1] (setting [6]); 0.06 ± 0.01 %ID/g in data set [1] (setting [7]); 0.04 ± 0.01 %ID/g in data set [1] (setting [8]); 0.09 ± 0.04 %ID/g in data set [1] (setting [9]). Also, the tissue uptake at 3 h in data set [1] (setting [10]) was about 24 %ID/g; in data set [1] (setting [11]), 0.22 ± 0.01 %ID/g; in data set [1] (setting [12]), 0.14 ± 0.06 %ID/g; in data set [1] (setting [13]) it was 0.02 %ID/g; in data set [1] (setting [14]), 0.05 ± 0.01 %ID/g; in data set [1] (setting [15]), 0.09 ± 0.01 %ID/g. Further, the tissue uptake at 3 h in data set [1] (setting [16]) was 0.04 ± 0.01 %ID/g. Also, the “Biodistribution: ACE xenograft (HEK-ACE)” value in data set [2] (setting [17]) is reported as 0.32 ± 0.18 % IA/g. Further, the HEK-ACE2 xenograft-to-kidney ratio in data set [2] (3 h after injection) is on record as 0.45 ± 0.02. Moreover, the “Released gallium-67 in human blood plasma” value in data set [4] is on record as over 30%. The “Activity retained in the kidneys relative to the 1 h p.i.-timepoint” value is reported as ~ 85% in data set [3] (3 h p.i.) and 35–45% in data set [3] (24 h p.i.).
